pIC50: −log10 of the molar value.
Target: GABAA central benzodiazepine receptor
Assay: Benzodiazepine Binding Assay
Conditions: read-out: BZ binding Assay IC50; 1 nM (3H)-flunitrazepam, rat whole brain (except cerebellum) membranes, 60 minutes at 25° C.

Row | pIC50 | SMILES
1 | > 6.00 | CC(C)N1CCN(C(=O)n2cc3c(=O)n(-c4ccc(Cl)cc4)nc-3c3cc(F)ccc32)CC1 [Compd 35, 5-(4-Isopropylpiperazine-1-carbonyl)-8-fluoro-2-(4-chlorophenyl)-2,5-dihydro-pyrazolo-(4,3-c)quinolin-3-one]
2 | > 6.00 | CN1CCN(C(=O)n2cc3c(=O)n(-c4ccccc4)nc-3c3ccccc32)CC1 [Compd 36, 5-(4-Methylpiperazine-1-carbonyl)-2-phenyl-2,5-dihydro-pyrazolo-(4,3-c)quinolin-3-one]
3 | > 6.00 | O=C(N1CCN(c2ccccc2)CC1)n1cc2c(=O)n(-c3ccccc3)nc-2c2cc(F)ccc21 [Compd 37, 5-(4-Phenylpiperazine-1-carbonyl)-8-fluoro-2-phenyl-2,5-dihydro-pyrazolo-(4,3-c)quinolin-3-one]
4 | > 6.00 | COc1ccc(-n2nc3c4cc(F)c(F)cc4n(C(=O)N4CCN(C(C)C)CC4)cc-3c2=O)cc1 [Compd 38, 5-(4-Isopropylpiperazine-1-carbonyl)-7,8-difluoro-2-(4′-methoxyphenyl)-2,5-dihydro-pyrazolo-(4,3-c)quinolin-3-one]
5 | > 6.00 | Cc1cc2c(cc1F)c1nn(-c3ccccc3)c(=O)c-1cn2C(=O)N1CCN(C)CC1 [Compd 41, 8-Fluoro-7-methyl-5-(4-methylpiperazine-1-carbonyl)-2-phenyl-2,5-dihydro-pyrazolo-(4,3-c)quinolin-3-one]
6 | > 6.00 | CN1CCN(C(=O)n2cc3c(=O)n(-c4ccccc4)nc-3c3cc(C(F)(F)F)ccc32)CC1 [Compd 45, 5-(4-Methylpiperazine-1-carbonyl)-2-phenyl-8-trifluoromethyl-2,5-dihydro-pyrazolo[4,3-c]quinolin-3-one]

The next lines start with the compound.

Row | SMILES | pIC50
7 | CC(C)N1CCN(C(=O)n2cc3c(=O)n(-c4ccccc4)nc-3c3cc(N4CCOCC4)ccc32)CC1 [Compd 34, 5-(4-Isopropylpiperazine-1-carbonyl)-8-morpholino-2-phenyl-2,5-dihydro-pyrazolo-(4,3-c)quinolin-3-one] | > 6.00
8 | COc1ccc(-n2nc3c4cc(F)ccc4n(C(=O)N4CCN(C(C)C)CC4)cc-3c2=O)cc1 [Compd 39, 5-(4-Isopropylpiperazine-1-carbonyl)-8-fluoro-2-(4′-methoxyphenyl)-2,5-dihydro-pyrazolo-(4,3-c)quinolin-3-one] | > 6.00
9 | CCCN1CCN(C(=O)n2cc3c(=O)n(-c4ccccc4)nc-3c3ccccc32)CC1 [Compd 40, 5-(4-Propylpiperazine-1-carbonyl)-2-phenyl-2,5-dihydro-pyrazolo-(4,3-c) quinolin-3-one] | > 6.00
10 | COc1ccc2c(c1)c1nn(-c3ccccc3)c(=O)c-1cn2C(=O)N1CCN(C)CC1 [Compd 42, 8-Methoxy-5-(4-methylpiperazine-1-carbonyl)-2-phenyl-2,5-dihydro-pyrazolo-(4,3-c)quinolin-3-one] | > 6.00
11 | Cc1c2c(=O)n(-c3ccccc3)nc-2c2ccccc2n1C(=O)N1CCN(C(C)C)CC1 [Compd 43, 5-(4-Isopropylpiperazine-1-carbonyl)-4-methyl-2-phenyl-2,5-dihydro-pyrazolo[4,3-c]quinolin-3-one] | > 6.00
12 | Cc1c2c(=O)n(-c3ccccc3)nc-2c2ccccc2n1C(=O)N1CCN(C)CC1 [Compd 44, 4-Methyl-5-(4-methylpiperazine-1-carbonyl)-2-phenyl-2,5-dihydro-pyrazolo[4,3-c]quinolin-3-one] | > 6.00
13 | CC(C)N1CCN(C(=O)n2cc3c(=O)n(-c4ccccc4)nc-3c3cc(C(F)(F)F)ccc32)CC1 [Compd 46, 5-(4-Isopropyl-piperazine-1-carbonyl)-2-phenyl-8-trifluoromethyl-2,5-dihydro-pyrazolo[4,3-c]quinolin-3-one] | > 9.00
14 | Cc1c2c(=O)n(-c3ccccc3)nc-2c2cc(F)c(F)cc2n1C(=O)N1CCN(C)CC1 [Compd 47, 5-(4-Methylpiperazine-1-carbonyl)-7,8-difluoro-4-methyl-2-phenyl-2,5-dihydro-pyrazolo-(4,3-c)quinolin-3-one] | < 6.00

Reference: US8343957B2, “Therapeutic pyrazoloquinoline urea derivatives” (Dart Neuroscience (Cayman) Ltd., priority 2007, dated 2013)
